The test relates to IL-1β release from a mouse microglial cell line. As to the kind of experiment: Interleukin-1β microglial cell assay (LPS / IFN gamma). The test is classed as cell-based. Conditions: LPS (10 μg/ml) and IFN gamma (10 ng/ml), 24 hours, read-out: EC50, inhibition of IL-1 beta induction. As to the method:
This assay measures the release of IL-1β from a mouse microglial cell line following an inflammatory challenge with LPS and interferon-gamma. The ability of test articles to inhibit microglial cell activation and IL-1β release is determined by co-incubation of the test article with the inflammatory challenge.
Mouse microglial cells were seeded in poly-D-lysine coated 96-well plates at a density of 10,000 cells/well and allowed to attach for 24 hours. Cells were stimulated by addition of LPS (10 μg/ml) and IFN gamma (10 ng/ml) in the presence or absence of test article. The cells were then incubated for 24 hours at 37° C., after which time the media was removed and used for cytokine determination as described below.
Viability of mouse microglial cells after exposure to the test article was determined using a fluorescent viability dye, Cell Tracker Green. Cell Tracker Green was used at a working concentration of 5 μM in 1×HBSS. Cells were washed once with HBSS (200 μl/well) and 100 μl Cell Tracker Green was added to each well. Cells were then incubated at 37° C. for 30 minutes, after which time the Cell Tracker was removed and the cells were washed once with HBSS (200 μl/well). 100 pl fresh HBSS was added to each well and the plate was read on a Fluoroskan plate reader using an excitation wavelength of 485 nm and an emission wavelength of 538 nm.
1. […]
• The Costar EIA Hi-binding plate was coated with capture antibody at 4 μg/ml. […] Each well was filled to the top, dispensed, and any remaining buffer was removed by inverting the plate and gently blotting against clean paper towels. • Non-specific binding sites were blocked by adding 300 μl of Blocking Buffer to each well, and after sealing incubating for at least 1 hour at room temperature. • After washing the plate was now ready for the samples. […] 100 μl of this Substrate Solution mixture was added to each well and the plate was incubated in the dark for 20 minutes at room temperature. • 50 μl of Stop Solution was added to each well, mixing was ensured by gently tapping. • Each plate was read with the Spectramax once at 450 nm. […]

The structures appear in SMILES notation. A value given as a limit tells only on which side of the number the result lay.

A word on the EC50: it is the concentration that produces a half-maximal response. `CC1=NN(c2ccccc2)C(=O)C1C(CCC1(C)CCc2cc(O)c(C)c(C)c2O1)C1C(=O)N(c2ccccc2)N=C1C` (centres unmarked) [1-(6-Hydroxy-2,7,8-trimethyl-chroman-2-yl)-3-bis-(5-methyl-2-phenyl-2,4-dihydro-pyrazol-3-one-4-yl)-propane]: the EC50 was ≤ 20 µM.

Regarding `Cc1c(O)cc2c(c1C)OC(C)(CC/C=C1\SC(=O)NC1=O)CC2` (centres unmarked) [5-[3-(6-Hydroxy-2,7,8-trimethyl-chroman-2-yl)-propylidene]-thiazolidine-2,4-dione], the EC50 is ≤ 20 µM.

The record behind these values is patent US8791155B2, “Chroman derivatives” (Edison Pharmaceuticals, Inc., priority 2003, dated 2014).
